According to publication PMC5823691 (Journal of medicinal chemistry, 2017):
In brackets after ≈: the same amount, converted by molar mass.

What was measured:
[1] = tested on: Salmonella typhimurium TA-100; test: Muta-Chromplate mutagenicity assay; conditions: S. typhimurium TA-100; concentrations tested of up to 500 µM; Figure S4
water solubility = assay type: physicochemical; conditions: distilled water, Estimated water solubility, saturated solution
[2] = tested on: THP-1 human myeloid cells; conditions: THP-1 cells, 0.5 µg/mL MegaCD40L, 48 h; Figure S2
[3] = tested on: Balb/c skin allografts in C57BL/6 mice; conditions: two week treatment, 30 mg/kg daily s.c. in 20% HPβCD
[4] = tested on: THP-1 human myeloid cells; test: MTT cytotoxicity assay; assay type: cell-based; conditions: THP-1 cells, 48 h; concentrations of up to 100 and 200 µM; Figure S3
[5] = tested on: Mac-1 (αMβ2)–CD40L interaction; test: cell-free Mac-1–CD40L binding inhibition assay; set-up: species or system human; conditions: compared with CD40–CD40L activity; Figure S1
[6] = biological target: human CD40–CD40L interaction (Homo sapiens, UniProt P29965)
Chain of human CD40–CD40L interaction (P29965 113-261 limits assumed): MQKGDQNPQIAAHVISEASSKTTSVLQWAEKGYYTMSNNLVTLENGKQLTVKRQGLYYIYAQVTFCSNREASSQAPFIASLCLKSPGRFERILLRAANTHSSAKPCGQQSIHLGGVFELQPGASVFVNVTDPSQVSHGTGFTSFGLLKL

SMILES | genotoxic potential (Ames test) [1] | effect on CD40L-induced MHC-II upregulation [2] | increase of inhibitory potency in Mac-1–CD40L assay [5] | also measured
COC(=O)c1ccc(C(=O)Nc2ccc(-c3ccc(C(=O)Nc4cccc5cccc(S(=O)(=O)O)c45)cc3)cc2)cc1 [Compound 10, 8-(4’-(4-(Methoxycarbonyl)benzamido)biphenyl-4-ylcarboxamido)naphthalene-1-sulfonic acid] | neither of these compounds was found to have genotoxic potential | concentration-dependently inhibited | – | solubility (water solubility): 164 µg/mL (≈ 282 µM); toxicity during chronic treatment [3]: no signs of toxicity
O=C(Nc1ccc(-c2ccc(C(=O)Nc3ccc(C(=O)O)c4ccccc34)cc2)cc1)c1ccc([N+](=O)[O-])cc1 [Compound 11, 4-(4’-(4-Nitrobenzamido)biphenyl-4-ylcarboxamido)-1-naphthoic acid] | – | concentration-dependently inhibited | – | cytotoxicity (MTT, viability) [4]: significant effect on viability at 100 µM
O=C(Nc1ccc2c(O)c(/N=N/c3ccc(N=Nc4ccc(S(=O)(=O)O)cc4)cc3S(=O)(=O)O)c(S(=O)(=O)O)cc2c1)Nc1ccc2c(O)c(/N=N/c3ccc(N=Nc4ccc(S(=O)(=O)O)cc4)cc3S(=O)(=O)O)c(S(=O)(=O)O)cc2c1 (stereo in doubt) [Compound 1, direct red 80, reference compound] | – | – | about 10 fold | ligand efficiency (LE) ([6]; binding free energy per non-hydrogen atom): 0.4 kJ/atom
CSCC[C@H](NC(=O)[C@@H](NC(=O)[C@H](Cc1ccc(O)cc1)NC(=O)[C@H](Cc1ccc(O)cc1)NC(=O)CNC(=O)[C@H](CCCCN)NC(=O)[C@H](CCCCN)NC(=O)[C@H](C)NC(=O)[C@H](Cc1c[nH]c2ccccc12)NC(=O)[C@H](CCC(N)=O)NC(=O)[C@H](CC(C)C)NC(=O)[C@@H](N)C(C)C)[C@@H](C)O)C(=O)N[C@@H](CCCCN)C(=O)N[C@@H](CO)C(=O)N[C@@H](CC(N)=O)C(=O)O [mouse KGYY15] | – | – | – | CD40 IC50 ([6]; cell-free, soluble CD40L binding to plate-coated CD40, Hill slope 1 fit): no inhibitory activity
O=C(Nc1ccc(-c2ccc(C(=O)Nc3cccc4cccc(S(=O)(=O)O)c34)cc2)cc1)c1ccc([N+](=O)[O-])cc1 [Compound 6, 8-(4’-(4-Nitrobenzamido)biphenyl-4-ylcarboxamido)naphthalene-1-sulfonic acid] | neither of these compounds was found to have genotoxic potential | concentration-dependently inhibited | – | –
Nc1ccc(C(=O)Nc2ccc(-c3ccc(C(=O)Nc4cccc5cccc(S(=O)(=O)O)c45)cc3)cc2)cc1 [Compound 8, 8-(4’-(4-Aminobenzamido)biphenyl-4-ylcarboxamido)naphthalene-1-sulfonic acid] | – | – | about 10 fold | –
